What was measured:
[1] = molecular target: T1, CDK12 (aa686-1082)/Cyclin K complex (Homo sapiens, UniProt Q9NYV4); test: CDK12 kinase inhibition assay (Caliper/LabChip EZ Reader); type: biochemical; conditions: CDK12 (aa686-1082)/Cyclin K 50 nM, ATP 2 mM, 3 hr at 27° C.
T1 construct: CDK12 (aa686-1082)/Cyclin K complex
Procedure: (§1) Compounds of the invention were assayed for inhibition of CDK7, CDK9, CDK12, and CDK2 activity at Biortus Biosciences (Jiangyin, Jiangsu Province, P.R. of China) using kinase assays for each CDK developed with a Caliper/LabChip EZ Reader (Perkin Elmer, Waltham, Mass.).
(§2) Furthermore, the CDK9 inhibition assay used CDK9/Cyclin T1 complex (8 nM) and “5-FAM-CDK9tide” peptide substrate (2 μM, synthesized fluorophore-labeled peptide with the following sequence: 5-FAM-GSRTPMY-NH2 where 5-FAM is defined above and NH2 signifies a C-terminal amide) with 10 mM MgCl2 in the buffer composition listed above. The CDK12 inhibition assay used CDK12 (aa686-1082)/Cyclin K complex (50 nM) and “5-FAM-CDK9tide” (2 μM) as defined above, with 2 mM MgCl2 in the buffer composition above. Additionally, the CDK2 inhibition assay used CDK2/Cyclin E1 complex (0.5 nM) and “5-FAM-CDK7tide” (2 μM) as defined above, with 2 mM MgCl2 in the buffer composition listed above.
(§3) The incubation period at 27° C. for each CDK inhibition assay was chosen such that the fraction of phosphorylated peptide product produced in each assay, relative to the total peptide concentration, was approximately 20% (±5%) for the uninhibited kinase (35 min. for CDK7, 35 min. for CDK2, 3 hr. for CDK12, 15 min. for CDK9).

CDK2/Cyclin E1 complex = CDK2/Cyclin E1 complex (Homo sapiens, UniProt P24941); test: CDK2 kinase inhibition assay (Caliper/LabChip EZ Reader); type: biochemical; conditions: CDK2/Cyclin E1 0.5 nM, ATP 2 mM, 35 min at 27° C.
Procedure: as §1, §2, §3

[2] = molecular target: CDK7/Cyclin H/MAT1 complex (Homo sapiens, UniProt P50613); test: CDK7 kinase inhibition assay (Caliper/LabChip EZ Reader); type: biochemical; conditions: CDK7/Cyclin H/MAT1 6 nM, ATP 2 mM, 35 min at 27° C.
Procedure: as §1, §2, §3

CDK9/Cyclin T1 complex = CDK9/Cyclin T1 complex (Homo sapiens, UniProt P50750); test: CDK9 kinase inhibition assay (Caliper/LabChip EZ Reader); type: biochemical; conditions: CDK9/Cyclin T1 8 nM, ATP 2 mM, 15 min at 27° C.
Procedure: as §1, §2, §3

A673 cells = test: Inhibition of proliferation of A673 cells (CyQUANT, 72 hour); type: cell-based, human; conditions: read-out: Inhibition of Proliferation of A673 Cells (calculated IC50)
Procedure: A673 Cells: A673 cells are a cell line derived from human muscle Ewing's sarcoma. Representative compounds of the invention were tested at different concentrations (from 4 μM to […]; 0.5 log serial dilutions) for their ability to inhibit the proliferation of A673 cells. Known CDK inhibitors dinaciclib or N-((1S,3R)-3-((5-chloro-4-(1H-indol-3-yl)pyrimidin-2-yl)amino)cyclohexyl)-5-((E)-4-(dimethylamino)but-2-enamido)picolinamide and triptolide were used as positive controls. Cells were grown in Dulbecco's Modified Eagle's Medium, +10% FBS+1 mM Sodium Pyruvate. The cells were cultured at 37° C. in a humidified chamber in the presence of 5% CO2. Proliferation assays were conducted over a 72 hour time period. CyQUANT® (Life Technologies, Chicago, Ill. USA) was used to assess the anti-proliferative effects of the compounds following manufacturer's directions and utilizing the reagents supplied with the CyQUANT® kit.

Chain of CDK7/Cyclin H/MAT1 complex (P50613 whole entry): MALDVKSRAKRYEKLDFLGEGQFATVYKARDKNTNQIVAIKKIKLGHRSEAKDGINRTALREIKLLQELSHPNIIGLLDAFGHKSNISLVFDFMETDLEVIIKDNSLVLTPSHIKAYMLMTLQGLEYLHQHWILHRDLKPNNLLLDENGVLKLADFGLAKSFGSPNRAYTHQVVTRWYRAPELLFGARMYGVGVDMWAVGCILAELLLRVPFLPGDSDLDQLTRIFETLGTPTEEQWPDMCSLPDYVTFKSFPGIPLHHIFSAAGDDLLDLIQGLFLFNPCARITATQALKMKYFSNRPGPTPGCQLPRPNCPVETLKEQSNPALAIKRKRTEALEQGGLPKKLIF
Chain of CDK7/Cyclin H/MAT1 complex (P51946 whole entry partner): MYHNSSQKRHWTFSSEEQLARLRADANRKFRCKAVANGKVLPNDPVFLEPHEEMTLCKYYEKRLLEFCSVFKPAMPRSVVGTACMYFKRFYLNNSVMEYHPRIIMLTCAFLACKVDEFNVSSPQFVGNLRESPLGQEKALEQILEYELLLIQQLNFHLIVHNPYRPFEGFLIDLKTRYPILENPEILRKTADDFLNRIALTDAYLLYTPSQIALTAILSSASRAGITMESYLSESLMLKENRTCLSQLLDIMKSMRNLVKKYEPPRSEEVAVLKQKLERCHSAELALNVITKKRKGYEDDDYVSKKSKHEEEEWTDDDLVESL
Chain of CDK7/Cyclin H/MAT1 complex (P51948 whole entry partner): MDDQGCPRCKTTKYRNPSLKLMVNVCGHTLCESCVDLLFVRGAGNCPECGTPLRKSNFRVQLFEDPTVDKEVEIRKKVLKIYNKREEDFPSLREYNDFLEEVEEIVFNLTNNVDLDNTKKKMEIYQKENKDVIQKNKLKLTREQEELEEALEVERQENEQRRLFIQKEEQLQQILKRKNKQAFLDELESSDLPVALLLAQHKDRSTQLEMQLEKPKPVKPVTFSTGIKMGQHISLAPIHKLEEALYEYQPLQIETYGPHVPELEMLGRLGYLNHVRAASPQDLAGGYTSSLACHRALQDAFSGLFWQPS
Chain of CDK9/Cyclin T1 complex (P50750 whole entry): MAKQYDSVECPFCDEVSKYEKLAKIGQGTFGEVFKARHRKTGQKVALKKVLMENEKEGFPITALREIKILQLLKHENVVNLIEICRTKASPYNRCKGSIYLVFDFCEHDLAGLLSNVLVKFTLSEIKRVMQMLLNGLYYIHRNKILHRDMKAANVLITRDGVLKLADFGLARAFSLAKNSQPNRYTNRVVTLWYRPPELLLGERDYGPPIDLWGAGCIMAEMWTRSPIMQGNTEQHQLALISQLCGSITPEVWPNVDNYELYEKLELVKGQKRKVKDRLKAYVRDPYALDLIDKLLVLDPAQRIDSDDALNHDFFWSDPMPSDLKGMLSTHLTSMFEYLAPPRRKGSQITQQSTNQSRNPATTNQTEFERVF
Chain of CDK9/Cyclin T1 complex (O60563 whole entry partner): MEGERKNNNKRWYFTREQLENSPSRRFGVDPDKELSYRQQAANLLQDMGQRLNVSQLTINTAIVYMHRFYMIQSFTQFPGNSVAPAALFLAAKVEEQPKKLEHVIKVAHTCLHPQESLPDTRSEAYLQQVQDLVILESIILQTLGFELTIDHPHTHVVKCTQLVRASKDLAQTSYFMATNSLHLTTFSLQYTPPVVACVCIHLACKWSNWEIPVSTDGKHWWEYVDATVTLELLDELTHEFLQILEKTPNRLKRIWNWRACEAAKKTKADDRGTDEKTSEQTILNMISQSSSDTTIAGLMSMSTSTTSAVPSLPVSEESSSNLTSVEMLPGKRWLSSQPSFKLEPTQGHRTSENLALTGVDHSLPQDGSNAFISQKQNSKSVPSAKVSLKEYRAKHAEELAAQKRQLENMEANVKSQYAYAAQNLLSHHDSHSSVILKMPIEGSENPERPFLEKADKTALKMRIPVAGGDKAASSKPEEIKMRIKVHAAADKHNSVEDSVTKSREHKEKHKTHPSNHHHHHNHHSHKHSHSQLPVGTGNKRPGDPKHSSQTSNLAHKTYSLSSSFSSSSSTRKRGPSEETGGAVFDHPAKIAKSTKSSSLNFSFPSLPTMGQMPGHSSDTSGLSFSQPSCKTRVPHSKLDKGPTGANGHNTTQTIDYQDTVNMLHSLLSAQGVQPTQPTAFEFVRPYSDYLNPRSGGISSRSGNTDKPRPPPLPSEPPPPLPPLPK
T1 sequence (Q9NYV4 686-1082): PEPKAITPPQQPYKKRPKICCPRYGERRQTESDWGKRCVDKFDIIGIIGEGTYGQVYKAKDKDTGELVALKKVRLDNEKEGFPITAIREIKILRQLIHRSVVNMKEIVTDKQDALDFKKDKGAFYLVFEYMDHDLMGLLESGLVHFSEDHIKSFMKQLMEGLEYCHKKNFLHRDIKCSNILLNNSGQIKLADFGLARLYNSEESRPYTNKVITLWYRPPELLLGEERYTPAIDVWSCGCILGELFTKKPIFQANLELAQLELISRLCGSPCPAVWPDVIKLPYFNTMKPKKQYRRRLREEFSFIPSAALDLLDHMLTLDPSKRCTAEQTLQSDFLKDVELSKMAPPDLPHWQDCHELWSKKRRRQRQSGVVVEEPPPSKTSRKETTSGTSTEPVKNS
T1 sequence (O75909 whole entry partner, the tested form may be a part): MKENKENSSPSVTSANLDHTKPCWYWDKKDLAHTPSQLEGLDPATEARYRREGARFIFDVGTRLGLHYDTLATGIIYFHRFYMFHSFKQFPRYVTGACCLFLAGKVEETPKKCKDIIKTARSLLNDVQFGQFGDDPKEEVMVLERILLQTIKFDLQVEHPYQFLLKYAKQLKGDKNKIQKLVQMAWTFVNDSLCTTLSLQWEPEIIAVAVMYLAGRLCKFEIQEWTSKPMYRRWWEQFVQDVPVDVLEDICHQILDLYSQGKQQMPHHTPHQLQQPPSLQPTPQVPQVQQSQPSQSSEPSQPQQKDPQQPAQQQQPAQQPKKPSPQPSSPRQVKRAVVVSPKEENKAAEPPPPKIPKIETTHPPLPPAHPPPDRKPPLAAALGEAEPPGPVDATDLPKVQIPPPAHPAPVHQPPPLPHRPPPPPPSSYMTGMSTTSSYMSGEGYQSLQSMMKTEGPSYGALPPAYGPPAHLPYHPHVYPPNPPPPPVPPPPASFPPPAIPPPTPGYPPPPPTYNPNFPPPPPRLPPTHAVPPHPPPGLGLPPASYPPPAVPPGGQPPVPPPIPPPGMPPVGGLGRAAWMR

SMILES | IC50 [1] [nM] | IC50 (CDK2/Cyclin E1 complex) [nM] | IC50 [2] [nM] | IC50 (CDK9/Cyclin T1 complex) [nM] | IC50 (A673 cells) [nM]
Clc1cnc(NC2CN3CCC2CC3)nc1-c1c[nH]c2ccccc12 (centres unmarked) [Compound 131] | ≥ 5000 | ≥ 5000 | ≥ 5000 | ≥ 5000 | 200 to 5000
Clc1cnc(NC2CCCNC2)nc1-c1cn(-c2ccccc2)c2ccccc12 (centres unmarked) [Compound 132] | ≥ 5000 | ≥ 5000 | 200 to 5000 | 200 to 5000 | 200 to 5000
Brc1cnc(N[C@@H]2CCCNC2)nc1-c1c[nH]c2ccccc12 [Compound 133] | 20 to 200 | 20 to 200 | < 20 | 200 to 5000 | < 20
Clc1cnc(N[C@H]2CN3CCC2CC3)nc1-c1c[nH]c2ccccc12 [Compound 134] | ≥ 5000 | ≥ 5000 | ≥ 5000 | ≥ 5000 | 200 to 5000
c1ccc2c(-c3nc(NC4CCCNC4)ncc3C3CC3)c[nH]c2c1 (centres unmarked) [Compound 135] | ≥ 5000 | ≥ 5000 | 20 to 200 | ≥ 5000 | 200 to 5000
CN1CCCC(Nc2ncc(Cl)c(-c3c[nH]c4ccccc34)n2)C1 (centres unmarked) [Compound 136] | 200 to 5000 | 200 to 5000 | < 20 | 200 to 5000 | 20 to 200
CCc1cnc(N[C@H]2CCCNC2)nc1-c1c[nH]c2c(C)cccc12 [Compound 137] | 200 to 5000 | 200 to 5000 | < 20 | 200 to 5000 | 20 to 200
Cc1cccc2c(-c3nc(NC4CCCNC4)ncc3F)c[nH]c12 (centres unmarked) [Compound 138] | 200 to 5000 | 200 to 5000 | 20 to 200 | 200 to 5000 | 200 to 5000
Cc1cccc2c(-c3nc(NC4CCCNC4)ncc3CC(C)C)c[nH]c12 (centres unmarked) [Compound 140] | ≥ 5000 | ≥ 5000 | 200 to 5000 | ≥ 5000 | 200 to 5000
CC(=O)c1cccc2c(-c3nc(NC4CCCNC4)ncc3Cl)c[nH]c12 (centres unmarked) [Compound 142] | 200 to 5000 | 200 to 5000 | < 20 | 200 to 5000 | < 20
CCc1cnc(N[C@H]2CCCNC2)nc1-c1n[nH]c2c(F)cccc12 [Compound 143] | 200 to 5000 | 200 to 5000 | < 20 | 200 to 5000 | < 20
CC(C)CN1CCCC(Nc2ncc(Cl)c(-c3c[nH]c4ccccc34)n2)C1 (centres unmarked) [Compound 145] | 200 to 5000 | ≥ 5000 | 20 to 200 | ≥ 5000 | 200 to 5000
Clc1cnc(NC2CCCNC2)nc1-c1c[nH]c2cccnc12 (centres unmarked) [Compound 146] | ≥ 5000 | ≥ 5000 | ≥ 5000 | ≥ 5000 | 20 to 200
Ic1cnc(NC2CCCNC2)nc1-c1c[nH]c2ccccc12 (centres unmarked) [Compound 147] | 200 to 5000 | 20 to 200 | < 20 | 200 to 5000 | < 20
CC(C)N1CCCC(Nc2ncc(Cl)c(-c3c[nH]c4ccccc34)n2)C1 (centres unmarked) [Compound 148] | 200 to 5000 | ≥ 5000 | 20 to 200 | 200 to 5000 | 20 to 200
COCCN1CCCC(Nc2ncc(Cl)c(-c3c[nH]c4ccccc34)n2)C1 (centres unmarked) [Compound 149] | 200 to 5000 | 200 to 5000 | 20 to 200 | 200 to 5000 | 20 to 200
Clc1cnc(N[C@H]2CCCNC2)nc1-c1c[nH]c2c(N3CCOCC3)cccc12 [Compound 150] | 200 to 5000 | 200 to 5000 | 20 to 200 | 200 to 5000 | 20 to 200

SMILES | IC50 [1] [nM] | IC50 (CDK2/Cyclin E1 complex) [nM] | IC50 [2] [nM] | IC50 (CDK9/Cyclin T1 complex) [nM] | IC50 (A673 cells) [nM]
Clc1cnc(NC2CCCNC2)nc1-c1c[nH]c2ccc(N3CCOCC3)cc12 (centres unmarked) [Compound 151] | ≥ 5000 | ≥ 5000 | 200 to 5000 | ≥ 5000 | 20 to 200
Fc1cc2[nH]nc(-c3nc(NC4CCCNC4)ncc3C(F)(F)F)c2cc1F (centres unmarked) [Compound 152] | 200 to 5000 | 200 to 5000 | < 20 | 200 to 5000 | < 20
N#Cc1cccc2c(-c3nc(NC4CCCNC4)ncc3C(F)(F)F)c[nH]c12 (centres unmarked) [Compound 153] | 20 to 200 | 20 to 200 | < 20 | 200 to 5000 | < 20
O=C(O)c1cccc2c(-c3nc(NC4CCCNC4)ncc3Cl)c[nH]c12 (centres unmarked) [Compound 154] | 200 to 5000 | ≥ 5000 | 20 to 200 | 200 to 5000 | 200 to 5000
Fc1cccc2c(-c3nc(NC4CCCNC4)ncc3Cl)n[nH]c12 (centres unmarked) [Compound 155] | 200 to 5000 | 200 to 5000 | 20 to 200 | 200 to 5000 | < 20
Fc1cccc2c(-c3nc(N[C@H]4CCCNC4)ncc3C(F)(F)F)n[nH]c12 [Compound 156] | 200 to 5000 | 200 to 5000 | < 20 | 200 to 5000 | < 20
N#Cc1cnc(NC2CCCNC2)nc1-c1c[nH]c2ccccc12 (centres unmarked) [Compound 157] | 200 to 5000 | 200 to 5000 | < 20 | 200 to 5000 | < 20
FC(F)(F)Cc1cnc(N[C@H]2CCCNC2)nc1-c1c[nH]c2ccccc12 [Compound 158] | 200 to 5000 | ≥ 5000 | 200 to 5000 | ≥ 5000 | 20 to 200
FC(F)(F)c1cnc(N[C@H]2CCCNC2)nc1-c1c[nH]c2ccc(Cl)cc12 [Compound 160] | 200 to 5000 | 200 to 5000 | < 20 | 200 to 5000 | < 20
FC(F)(F)c1cnc(NC2CCCNC2)nc1-c1c[nH]c2c(Cl)cccc12 (centres unmarked) [Compound 167] | 20 to 200 | 200 to 5000 | < 20 | 200 to 5000 | < 20
CCOP(=O)(OCC)c1cccc2c(-c3nc(NC4CCCNC4)ncc3C(F)(F)F)c[nH]c12 (centres unmarked) [Compound 168] | ≥ 5000 | ≥ 5000 | 200 to 5000 | ≥ 5000 | 200 to 5000
N#Cc1ccc2[nH]cc(-c3nc(NC4CCCNC4)ncc3C(F)(F)F)c2c1 (centres unmarked) [Compound 169] | 200 to 5000 | ≥ 5000 | 20 to 200 | ≥ 5000 | 200 to 5000
Cc1nn(C)cc1-c1cccc2c(-c3nc(NC4CCCNC4)ncc3C(F)(F)F)c[nH]c12 (centres unmarked) [Compound 171] | 200 to 5000 | 200 to 5000 | < 20 | 200 to 5000 | < 20
Cc1cn(-c2cccc3c(-c4nc(NC5CCCNC5)ncc4C(F)(F)F)c[nH]c23)cn1 (centres unmarked) [Compound 172] | 200 to 5000 | 200 to 5000 | < 20 | 200 to 5000 | < 20
Clc1cnc(N[C@H]2CCCNC2)nc1-c1n[nH]c2ccccc12 [Compound 174] | 200 to 5000 | 200 to 5000 | < 20 | 200 to 5000 | 20 to 200
FC(F)(F)c1cnc(NC2CCCNC2)nc1-c1c[nH]c2ccc(-c3cn[nH]c3)cc12 (centres unmarked) [Compound 177] | 200 to 5000 | ≥ 5000 | 20 to 200 | ≥ 5000 | 200 to 5000
Cn1cc(-c2ccc3[nH]cc(-c4nc(NC5CCCNC5)ncc4C(F)(F)F)c3c2)cn1 (centres unmarked) [Compound 178] | 200 to 5000 | ≥ 5000 | 20 to 200 | ≥ 5000 | 200 to 5000
